Results published in patent publication US20090130212A1, “COMPOSITION AND IMPROVED METHOD FOR PREPARATION OF SMALL PARTICLES” (PHYSICAL PHARMACEUTICA, LLC, priority 2006, published 2009).

Legend:
Type in all cases: physicochemical
[1] = Dissolution of ibuprofen in 0.01N HCl, microdialysis sampling and HPLC (Example 3); conditions: 50 ml 0.01N HCl pH 2, 25° C
Experimental: The remaining ether was removed by evaporation at room temperature in a vacuum oven at less than 10 torr, for 2 hours.

[2] = Aqueous solubility of ibuprofen; conditions: pH 2, in 50 ml
[3] = pKa / ionization of ibuprofen; conditions: pH of 2

amount of ibuprofen dissolved ([1]; after five minutes): approximately 790 mcg
amount of ibuprofen dissolved ([1]; after one minute): approximately 190 mcg
amount of ibuprofen dissolved ([1]; after two minutes): approximately 350 mcg
amount dissolved corresponding to solubility [2]: 4000 µg
fraction unionized [3]: more than 99%
Structure (SMILES): CC(C)Cc1ccc(C(C)C(=O)O)cc1 (centres unmarked) [pure ibuprofen, ibuprofen]
